Laboratory results from US20100129915A1, “METHODS FOR INDUCING CARDIOMYOGENESIS” (priority 2006, published 2010).

How the values were obtained:
Type in all cases: cell-based
Murine ES cells [1] = test: Beating embryoid bodies (EBs) from ES cells grown in suspension; conditions: for number of beating EBs at EB12: early treatment EB4-6, Wnt3a 150 ng/ml or Dkk1 500 ng/ml, untreated 10%; for EBs beating by EB 12: late treatment EB 7-9, Wnt3a 150 ng/ml or Dkk1 500 ng/ml, control EBs 13%
Experimental: (§1) ES cell culture and gene expression analysis. Murine ES cells were propagated undifferentiated in maintenance medium consisting of Glasgow MEM (Sigma G5154) supplemented with 10% fetal bovine serum (FBS, Hyclone SH30071.03), 1 mM β-mercaptoethanol (Sigma M7522), 2 mM L-glutamine (Gibco-BRL 25030-081), 1 mM sodium pyruvate (Gibco-BRL 11360-070), 0.1 mM minimum essential medium containing nonessential amino acids, and LIF-conditioned medium (1:1000). EBs were formed by culturing ES cells (6×10^5/well) for 3 days in ultra-low-attachment six-well plates (Costar 07200601) in differentiation medium (DM), which contained the same components as maintenance medium but had 20% FBS and no LIF. For early treatment, the medium was replaced with DM containing Wnt3a (150 ng/ml, R&D systems) or Dkk1 (500 ng/ml, R&D systems) at the start of day 4; on day 6, the medium was replaced with fresh DM. For late treatment, DM was replaced with Wnt3a- or Dkk1-containing DM at the start of day 7 and switched to fresh DM on day 9. Respective media were changed for early-, late-, and un-treated EBs every 3 days. EBs were monitored for beating from days 8-12. EBs were collected between days 3 and 12 at regular intervals. For gene expression analysis, total RNA was isolated, and real-time PCR was performed with the ABI Prism system (7900HT, Applied Biosystems). All samples were run in triplicate. Real-time PCR data were normalized and standardized with SDS2.2 software.
(§2) FIGS. 4A-E. Canonical Wnt signaling regulates cardiac induction and differentiation in ES cells. a, Brachyury expression profiles, determined by quantitative real-time PCR (qPCR), of undifferentiated ES cells on day 0 and EBs harvested on days 3, 6, and 9 after early Wnt3a or Dkk-1 treatment compared to control. b, Beating EBs grown in suspension were counted from days 8-12. Percentage of beating EBs after early (days 4-6) or late (days 7-9) treatment with Wnt3a (left) or Dkk-1 (right). Asterisks indicate significant difference in beating percentage of treatment groups versus untreated EBs (P<0.01). c, d Immunohistochemistry of day 12 EBs with anti-Islet1 (c) or anti-Tropomyosin (d). e, Cardiac gene expression after early (days 4-6, top) or late (days 7-9, bottom) treatment with Wnt3a or Dkk-1. EBs were harvested on days 3, 6 and 9 (early treatment) or days 6, 9, and 12 (late treatment). Fold change in expression of all indicated genes (y-axis) in EBs with respect to undifferentiated ES cells was assessed by qPCR. NS, not significant. *P<0.01.

Murine ES cells [2] = test: Mesoderm and cardiac gene expression in EBs by quantitative real-time PCR; conditions: qPCR; for Bry (Brachyury) expression: early treatment after EB3, compared to control; for expression of early cardiac gene Nkx2.5 / expression of early cardiac gene Tbx5: exposure from EB4-6 (early treatment); for expression of early and late cardiac markers (cardiac gene expression): late treatment EB 7-9
Experimental: as §1, §2

Murine ES cells [3] = test: Immunohistochemistry of day 12 EBs with anti-Islet1 or anti-Tropomyosin; conditions: for number of Isl1-positive cells in EBs: anti-Islet1 immunohistochemistry; for number of Tropomyosin-positive cells in EBs: anti-Tropomyosin immunohistochemistry
Experimental: Immunohistochemistry and in situ hybridization. Whole or cryosectioned embryos and EBs were stained with the following antibodies: mouse anti-Islet1 (1:200) and anti-tropomyosin (1:100) (DSHB), goat anti-Wnt8a (15 μg/ml, R&D Systems), goat anti-β-catenin (1:50) and rat anti-cyclin D2 (1:100) (Santa Cruz Biotechnology), rabbit anti-phospho-Histone H3 (1:100, Upstate), and horseradish peroxidase-conjugated (with TSA plus Fluorescent Systems, PerkinElmer) secondary antibodies (The Jackson Laboratory). mRNA in situ hybridization was performed with designated antisense probes as described. Srivastava et al Science 270, 1995-9 (1995).
as §1
FIGS. 4A-E. Canonical Wnt signaling regulates cardiac induction and differentiation in ES cells. a, Brachyury expression profiles, determined by quantitative real-time PCR (qPCR), of undifferentiated ES cells on day 0 and EBs harvested on days 3, 6, and 9 after early Wnt3a or Dkk-1 treatment compared to control. b, Beating EBs grown in suspension were counted from days 8-12. Percentage of beating EBs after early (days 4-6) or late (days 7-9) treatment with Wnt3a (left) or Dkk-1 (right). […] Fold change in expression of all indicated genes (y-axis) in EBs with respect to undifferentiated ES cells was assessed by qPCR. […]

[4] = test system: human embryonic stem (ES) cells (H9); test: Beating of differentiating human ES cells treated with Wnt-3a
Experimental: Differentiating human embryonic stem (ES) cells (H9) were treated with Wnt-3a. […] Thus, canonical Wnt promotes human ES cells to differentiate into cardiomyocytes.

Row | Substance | number of beating EBs at EB12 (Murine ES cells [1]) | EBs beating by EB 12 (Murine ES cells [1]) | Bry (Brachyury) expression (Murine ES cells [2]) | expression of early cardiac gene Nkx2.5 (Murine ES cells [2]) | expression of early cardiac gene Tbx5 (Murine ES cells [2]) | expression of early and late cardiac markers (cardiac gene expression) (Murine ES cells [2]) | number of Isl1-positive cells in EBs (Murine ES cells [3]) | number of Tropomyosin-positive cells in EBs (Murine ES cells [3]) | number of beating hES cells [4]
1 | Dkk1 | complete absence of beating EBs | Approximately 10% | unaltered | downregulated | downregulated | not changed | decreased | decreased | 
2 | Wnt3a | over 50% | ~50% | unaltered | upregulated | upregulated | upregulated | increased | increased | significantly increased
